# Patent US20240366612A1, “COMPOUNDS AND METHODS FOR MODULATING NUCLEIC ACID SPLICING” (REMIX THERAPEUTICS INC., priority 2021, published 2024)
# Where a name gives a salt, the structure may show the parent alone.
# Assays:
# MYB mRNA = assay: Splicing RT-qPCR assay, MYB canonical (CJ) and alternative (AJ) junction mRNA; type: cell-based; details: Homo sapiens, A673 or K562 cells, 24 hours treatment; for IC50: decrease in CJ mRNA; for AC50: increase in AJ mRNA
# Procedure: (§1) Compounds described herein were used to modulate RNA transcript abundance in cells. The expression of a target mRNA was measured by detecting the formation of an exon-exon junction in the canonical transcript (CJ). A compound mediated exon-inclusion event was detected by observing an increase in formation of a new junction with an alternative exon (AJ). Real-time qPCR assays were used to detect these splicing switches and interrogate the potency of various compounds towards different target genes. A high-throughput real time quantitative PCR (RT-qPCR) assay was developed to measure these two isoforms of the mRNA (CJ and AJ) for exemplary genes, such as HTT, SMN2, and MYB, together with a control housekeeping gene, GAPDH or GUSB or PPIA, used for normalization. Briefly, the A673 or K562 cell line was treated with various compounds described herein (e.g., compounds of Formula (I)). After treatment, the levels of the HTT, MYB, or SMN2 mRNA targets were determined from each sample of cell lysate by cDNA synthesis followed by qPCR.
# • Cells-to-CT 1-step kit: ThermoFisher A25602, Cells-to-CT lysis reagent: ThermoFisher 4391851C, TaqMan™ Fast Virus 1-Step Master Mix: ThermoFisher 4444436 • GAPDH: VIC-PL, ThermoFisher 4326317E (Assay: Hs99999905_ml)—used for K562/suspension cell lines • GUSB: VIC-PL, ThermoFisher 4326320E (Assay: Hs99999908_ml)—used for K562/suspension cell lines • PPIA: VIC-PL, ThermoFisher 4326316E (Assay: Hs99999904_ml)—used for A673/adherent cell lines
# (§2) The A673 cell line was cultured in DMEM with 10% FBS. Cells were diluted with full growth media and plated in a 96-well plate (15,000 cells in 100 ul media per well). The plate was incubated at 37° C. with 5% CO2 for 24 hours to allow cells to adhere. An 11-point 3-fold serial dilution of the compounds was made in DMSO then diluted in media in an intermediate plate. Compounds were transferred from the intermediate plate to the cell plate with the top dose at a final concentration of 10 uM in the well. Final DMSO concentration was kept at or below 0.25%. The cell plate was returned to the incubator at 37° C. with 5% CO2 for an additional 24 hours.
# (§3) The K562 cell line was cultured in IMDM with 10% FBS. For K562, cells were diluted with full growth media and plated in either a 96-well plate (50,000 cells in 50 uL media per well) or a 384-well plate (8,000-40,000 cells in 45 uL media per well). An 11-point 3-fold serial dilution of the compounds were made in DMSO then diluted in media in an intermediate plate. Compound was transferred from the intermediate plate to the cell plate with the top dose at a final concentration of 10 uM in the well. Final DMSO concentration was kept at or below 0.25%. Final volume was 100 uL for 96-well plate and 50 uL for 384-well plate. The cell plate was then placed in an incubator at 37° C. with 5% CO2 for 24 hours.
# The cells were then gently washed with 50 uL-100 uL cold PBS before proceeding to addition of lysis buffer. 30 uL-50 μL of room temperature lysis buffer with DNAse I (and optionally RNAsin) was added to each well. Cells were shaken/mixed thoroughly at room temperature for 5-10 minutes for lysis to take place and then 3 uL-5 μL of room temperature stop solution was added and wells were shaken/mixed again. After 2-5 minutes, the cell lysate plate was transferred to ice for RT-qPCR reaction setup. The lysates could also be frozen at −80° C. for later use.
# In some cases, a direct lysis buffer was used. An appropriate volume of 3×lysis buffer (10 mM Tris, 150 mM NaCl, 1.5%-2.5% Igepal and 0.1-1 U/uL RNAsin, pH 7.4) was directly added to either K562 or A673 cells in media and mixed by pipetting 3 times. The plates were then incubated at room temperature with shaking/rocking for 20-50 minutes to allow for lysis to take place. After this time, the cell lysate plate was transferred to ice to set up for the RT-qPCR reactions. The lysates could also be frozen at −80° C. for later use. […]
# MYB CJ mRNA = assay: Gene panel canonical junction qPCR assay, MYB; type: cell-based; details: Homo sapiens, larger gene panel, read-out: MYB IC50 (decrease in CJ mRNA levels)
# Procedure: as §1, §2, §3
# (§4) The data analysis was performed by first determining the ΔCt vs the housekeeper gene. This ΔCt was then normalized against the DMSO control (ΔΔCt) and converted to RQ (relative quantification) using the 2^(−ΔΔCt) equation. The RQ were then converted to a percentage response by arbitrarily setting an assay window of 3.5 and 4.0 ΔCt for HTT-CJ and MYB-CJ respectively and an assay window of 9 and 3 ΔCt for HTT-AJ and MYB-AJ in 96 well format (50,000 K562 cells/well and 15,000 A673 cells per well) and an assay window of 3 and 4 ΔCt for HTT-CJ and MYB-CJ respectively and an assay window of 5 and 3 ΔCt for HTT-AJ and MYB-AJ respectively in 384 well format (8,000 K562 cells/well example). […] The percentage response was then fitted to the 4 parametric logistic equation to evaluate the concentration dependence of compound treatment. The increase in AJ mRNA is reported as AC50 (compound concentration having […] in AJ increase) while the decrease in CJ mRNA levels is reported as IC50 (compound concentration having 50% response in CJ decrease).
# (§5) Additional studies were carried out for a larger panel of genes using the protocol provided above. The junction between flanking upstream and downstream exons was used to design canonical junction qPCR assays. At least one of the forward primer, reverse primer or the CY5-labeled 5′ nuclease probe (with 3′ quencher such as ZEN/Iowa Black FQ) was designed to overlap with the exon junction to capture the CJ mRNA transcript. […]
# SMN2 CJ mRNA = assay: Gene panel canonical junction qPCR assay, SMN2; type: cell-based; details: Homo sapiens, larger gene panel, read-out: SMN2 IC50 (decrease in CJ mRNA levels)
# Procedure: as §1, §2, §3, §4, §5
# [1] = Cell Titer Glo 2.0 cell viability assay; details: human, K562 cells
# Procedure: Compounds described herein were screened for toxicity in K562 (human chronic myelogenous leukemia) cells using a Cell Titer Glo 2.0 assay.
# • Promega CellTiter-Gbo® 2.0 Cell Viability Assay (cat #G9241) • Corning 384-well TC-treated microplates (cat #3570)
# Cells were plated at 500 cells/well (K562 cells) in 45 μL of IMDM supplemented with 10% FBS in a 384-well opaque plate. Wells containing only medium were used as a blank control. Test compounds (e.g., compounds of Formula (I), (II), and (III)) were first serially diluted in DMSO then diluted 1:100 with IMDM+10% FBS. The final concentration of DMSO was 0.1% in each well. The cells were incubated for 72 hours at 37° C. and 5% CO2 before assaying with Cell Titer Glo 2.0 reagent.
IC50 (MYB mRNA),IC50 (MYB CJ mRNA),IC50 (SMN2 CJ mRNA),Compound,AC50 (MYB mRNA),GI50 at 72 h [1]
1000 to 10000 nM,1000 to 10000 nM,< 100 nM,"Cc1cn2cc(-c3cc4ncn([C@H]5CCNC[C@@H]5F)c(=O)c4s3)cc(F)c2n1 (relative stereo) [Compound 272, trans-6-{8-fluoro-2-methylimidazo[1,2-a]pyridin-6-yl}-3-[3-fluoropiperidin-4-yl]thieno[3,2-d]pyrimidin-4-one]",1000 to 10000 nM,> 10000 nM
100 to 1000 nM,100 to 1000 nM,100 to 1000 nM,"Cc1cn2cc(-c3cc4ncn([C@H]5CCNC[C@H]5F)c(=O)c4s3)cc(F)c2n1 (relative stereo) [Compound 273, cis-6-{8-fluoro-2-methylimidazo[1,2-a]pyridin-6-yl}-3-[3-fluoropiperidin-4-yl]thieno[3,2-d]pyrimidin-4-one]",100 to 1000 nM,1000 to 10000 nM
100 to 1000 nM,100 to 1000 nM,< 100 nM,"Cc1cn2cc(-c3cc4ncn([C@H]5CCN[C@H](C)C5)c(=O)c4s3)cc(F)c2n1 (relative stereo) [Compound 277, 6-{8-fluoro-2-methylimidazo[1,2-a]pyridin-6-yl}-3-[(trans)-2-methylpiperidin-4-yl]thieno[3,2-d]pyrimidin-4-one]",100 to 1000 nM,100 to 1000 nM
100 to 1000 nM,100 to 1000 nM,< 100 nM,"Cc1cn2cc(-c3cc4ncn([C@H]5CCN[C@@H](C)C5)c(=O)c4s3)cc(F)c2n1 (relative stereo) [Compound 278, 6-{8-fluoro-2-methylimidazo[1,2-a]pyridin-6-yl}-3-[(cis)-2-methylpiperidin-4-yl]thieno[3,2-d]pyrimidin-4-one hydrochloride]",100 to 1000 nM,100 to 1000 nM
1000 to 10000 nM,1000 to 10000 nM,1000 to 10000 nM,"Cc1cn2cc(-c3cc(=O)n4nc(N5CCNC6(CC6)C5)sc4n3)cc(F)c2n1 [Compound 209, 7-(8-fluoro-2-methylimidazo[1,2-a]pyridin-6-yl)-2-(4,7-diazaspiro[2.5]octan-7-yl)-5H-[1,3,4]thiadiazolo[3,2-a]pyrimidin-5-one]",1000 to 10000 nM,1000 to 10000 nM

# The next lines start with the molecule.
Compound,IC50 (MYB mRNA),IC50 (MYB CJ mRNA),IC50 (SMN2 CJ mRNA),AC50 (MYB mRNA),GI50 at 72 h [1]
"Cc1cc(-c2cc(=O)n3cc(N4CCN(C)CC4)sc3n2)cc2cn(C)nc12 [Compound 109, 7-(2,7-dimethyl-2H-indazol-5-yl)-2-(4-methylpiperazin-1-yl)-5H-thiazolo[3,2-a]pyrimidin-5-one]",> 10000 nM,> 10000 nM,> 10000 nM,1000 to 10000 nM,1000 to 10000 nM
"Cc1cc(-c2cc(=O)n3nc(N4CCN(C)CC4)sc3n2)cc2cn(C)nc12 [Compound 157, 7-(2,7-dimethyl-2H-indazol-5-yl)-2-(4-methylpiperazin-1-yl)-5H-[1,3,4]thiadiazolo[3,2-a]pyrimidin-5-one]",> 10000 nM,> 10000 nM,> 10000 nM,> 10000 nM,> 10000 nM
"Cc1cn2cc(-c3cc(=O)n4nc(N5CCN(C)CC5)sc4n3)cc(F)c2n1 [Compound 159, 7-(8-fluoro-2-methylimidazo[1,2-a]pyridin-6-yl)-2-(4-methylpiperazin-1-yl)-5H-[1,3,4]thiadiazolo[3,2-a]pyrimidin-5-one]",1000 to 10000 nM,1000 to 10000 nM,1000 to 10000 nM,1000 to 10000 nM,1000 to 10000 nM
"Cc1cn2nc(-c3cc(=O)n4cc(N(C)C5CC(C)(C)NC(C)(C)C5)sc4n3)cc(C)c2n1 [Compound 205, 7-(2,8-dimethylimidazo[1,2-b]pyridazin-6-yl)-2-(methyl(2,2,6,6-tetramethylpiperidin-4-yl)amino)-5H-thiazolo[3,2-a]pyrimidin-5-one]",1000 to 10000 nM,1000 to 10000 nM,1000 to 10000 nM,1000 to 10000 nM,–
"Cc1cc(-c2nn3c(=O)cc(N4CCNCC4)nc3s2)cc2cn(C)nc12 [Compound 206, 2-(2,7-dimethyl-2H-indazol-5-yl)-7-(piperazin-1-yl)-5H-[1,3,4]thiadiazolo[3,2-a]pyrimidin-5-one]",1000 to 10000 nM,1000 to 10000 nM,100 to 1000 nM,1000 to 10000 nM,1000 to 10000 nM
"Cc1cn2cc(-c3cc(=O)n4cc(N5CCNC6(CC6)C5)sc4n3)cc(F)c2n1 [Compound 207, 7-(8-fluoro-2-methylimidazo[1,2-a]pyridin-6-yl)-2-(4,7-diazaspiro[2.5]octan-7-yl)-5H-thiazolo[3,2-a]pyrimidin-5-one]",1000 to 10000 nM,1000 to 10000 nM,100 to 1000 nM,> 10000 nM,> 10000 nM
"Cc1cn2cc(-c3cn4c(=O)cc(N5CCNC6(CC6)C5)nc4s3)cc(F)c2n1 [Compound 208, 2-(8-fluoro-2-methylimidazo[1,2-a]pyridin-6-yl)-7-(4,7-diazaspiro[2.5]octan-7-yl)-5H-thiazolo[3,2-a]pyrimidin-5-one]",1000 to 10000 nM,1000 to 10000 nM,1000 to 10000 nM,1000 to 10000 nM,1000 to 10000 nM
"Cc1cn2cc(-c3nn4c(=O)cc(N(C)C5CC(C)(C)NC(C)(C)C5)nc4s3)cc(F)c2n1 [Compound 215, 2-(8-fluoro-2-methylimidazo[1,2-a]pyridin-6-yl)-7-(methyl(2,2,6,6-tetramethylpiperidin-4-yl)amino)-5H-[1,3,4]thiadiazolo[3,2-a]pyrimidin-5-one]",1000 to 10000 nM,1000 to 10000 nM,100 to 1000 nM,1000 to 10000 nM,–
"Cc1cn2cc(-n3cnc4nc(N(C)C5CC(C)(C)NC(C)(C)C5)sc4c3=O)cc(F)c2n1 [Compound 227, 6-(8-fluoro-2-methylimidazo[1,2-a]pyridin-6-yl)-2-(methyl(2,2,6,6-tetramethylpiperidin-4-yl)amino)thiazolo[4,5-d]pyrimidin-7(6H)-one, formate]",> 10000 nM,> 10000 nM,> 10000 nM,> 10000 nM,–
